This note sets out measurements from patent US20090247554A1, “KINASE INHIBITORS” (TAKEDA SAN DIEGO, INC., priority 2006, published 2009).

This assay concerns the target T1, Aurora A Kinase (Homo sapiens, UniProt O14965).
T1 sequence (O14965 1-403): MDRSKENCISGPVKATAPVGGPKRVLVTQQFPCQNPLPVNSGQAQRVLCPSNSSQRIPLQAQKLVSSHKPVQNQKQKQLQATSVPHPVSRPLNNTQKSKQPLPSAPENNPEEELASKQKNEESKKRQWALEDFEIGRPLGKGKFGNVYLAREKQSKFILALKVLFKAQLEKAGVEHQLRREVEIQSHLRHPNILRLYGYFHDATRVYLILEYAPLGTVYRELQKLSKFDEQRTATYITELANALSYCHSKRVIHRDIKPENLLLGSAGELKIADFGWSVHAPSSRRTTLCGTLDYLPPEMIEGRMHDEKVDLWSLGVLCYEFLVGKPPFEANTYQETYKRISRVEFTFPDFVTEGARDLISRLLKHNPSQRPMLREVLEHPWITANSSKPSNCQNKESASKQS
Nature of the assay: Determination of inhibition of AIK (Aurora A kinase) by direct fluorescence polarization (IMAP). To be noted: read-out: IC50 of Exemplified Compounds Against Aurora A Kinase. The class given is biochemical. The method, then:
A. Determination of Inhibition of AIK
The inhibitory properties of compounds relative to AIK may be determined by the Direct Fluorescence Polarization detection method (FP) using a Greiner small volume black 384-well-plate format under the following reaction conditions: 50 mM Hepes pH 7.3, 10 mM MgCl2, 10 mM NaCl, 1 mM DTT, 0.01% Brij35, 100 nM Fluorescein-LRRASLG peptide (provided by SYNPEP), 5% DMSO, 2.5 uM ATP. Detection of the reaction product is performed by addition of IMAP binding reagent (Molecular Devices). Reaction product may be determined quantitatively by FP using an Analyst HT plate reader (Molecular Devices) with an excitation wavelength at 485 nm and emission at 530 nm and using a Fluorescein 505 dichroic mirror.
The assay reaction may be initiated as follows: 2 ul of (3×) 300 nM Fl-Peptide/7.5 uM ATP was added to each well of the plate, followed by the addition of 2 ul of (3×) inhibitor (2.5 fold serial dilutions for 11 data points for each inhibitor) containing 15% DMSO. 2 ul of (3×) 7.5 nM AIK solution may be added to initiate the reaction (final enzyme concentration was 2.5 nM for AIK). The reaction mixture may then be incubated at room temperature for 45 min, and quenched and developed by addition of 20 ul of 1 to 400 diluted IMAP binding reagent in 1× proprietary IMAP binding buffer. Fluorescence polarization readings of the resulting reaction mixtures may be measured after a 60-minute incubation at room temperature.
IC50 values may be calculated by non-linear curve fitting of the compound concentrations and fluorescent polarization values to the standard IC50 equation.
A general note: Polarisation of emitted light reports the rotation of a fluorescent probe.
Consider `CCS(=O)(=O)c1cccc(-c2nc(Nc3cc(C)[nH]n3)c3cscc3n2)c1` [Example 5, [2-(3-Ethanesulfonyl-phenyl)-thieno[3,4-d]pyrimidin-4-yl]-(5-methyl-1H-pyrazol-3-yl)-amine], for which the half-maximal inhibitory concentration (IC50) – broadly, the concentration needed to halve the response being measured – is at most 50 nM.
The value for `CCS(=O)(=O)n1ccc2ccc(-c3nc(Nc4cc(C)[nH]n4)c4cscc4n3)cc21` [Example 6, [2-(1-Ethanesulfonyl-1H-indol-6-yl)-thieno[3,4-d]pyrimidin-4-yl]-(5-methyl-1H-pyrazol-3-yl)-amine] was at most 50 nM.
On to `Cc1cc(Nc2nc(Sc3ccc(NC(=O)C4CC4)cc3)nc3sc(C)cc23)n[nH]1` [Example 8, N-(4-(6-Methyl-4-(5-methyl-1H-pyrazol-3-ylamino)thieno[2,3-d]pyrimidin-2-ylthio)phenyl)cyclopropanecarboxamide], for which the IC50 was at most 50 nM.
Then `CCS(=O)(=O)c1cccc(-c2nc(Nc3cc(C)[nH]n3)c3cc(C)sc3n2)c1` [Example 7, 2-(3-(ethylsulfonyl)phenyl)-6-methyl-N-(5-methyl-1H-pyrazol-3-yl)thieno[2,3-d]pyrimidin-4-amine], with at most 50 nM; and `CCS(=O)(=O)n1ccc2ccc(-c3nc(Nc4cc(C)[nH]n4)c4cc(C)sc4n3)cc21` [Example 3, 2-(1-(ethylsulfonyl)-1H-indol-6-yl)-6-methyl-N-(5-methyl-1H-pyrazol-3-yl)thieno[2,3-d]pyrimidin-4-amine], with at most 50 nM.
The value for `CCS(=O)(=O)n1cc(CN(C)C)c2ccc(-c3nc(Nc4cc(C)[nH]n4)c4cc(C)sc4n3)cc21` [Example 4, 2-(3-((dimethylamino)methyl)-1-(ethylsulfonyl)-1H-indol-6-yl)-6-methyl-N-(5-methyl-1H-pyrazol-3-yl)thieno[2,3-d]pyrimidin-4-amine] was at most 50 nM.
